Laboratory results from the supplement of paper PMC8497498.

Experiments:
[1] = system: primary human hepatocytes; test: CC20 hepatic nuclei (20% reduction); higher = less toxic
Method: (§1)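 Dose-response of P. vivax liver stages in primary human hepatocytes, with 8 points (10 uM-[…], v1) or 12 points in duplicate (50 uM-280 pM, v2). Read-out is high-content imaging of schizont net growth area, hypnozoite quantity and hepatic nuclei. EC50 and CC20 (20% nuclei loss) were fitted in CDD Vault from the highest-quality independent experiment; toxic-dose bell-shaped points were masked. '>' marks the highest concentration with less than 50% activity, and ND means a non-sigmoidal curve.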

[2] = system: Plasmodium vivax liver stage (primary human hepatocyte culture); test: maximum inhibition of schizont net growth area; higher = more active
Method: as §1

[3] = system: Plasmodium falciparum 3D7 asexual blood stage; test: EC50 asexual blood stage growth; settings: serum: 0.5% AlbuMAX
Method: (§2)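 The Reference Compound Library was tested by 10-point 3-fold dose response against P. cynomolgi Berok K4 asexual blood stages (SYBR proliferation assay, mefloquine background control). Culture medium contained 0.5% AlbuMAX or 20% M. fascicularis serum. P. falciparum 3D7 was tested in a 72-h SYBR Green assay with 0.5% AlbuMAX. Values are geometric mean EC50 over independent experiments; 10 uM is the top dose.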

[4] = system: Plasmodium cynomolgi Berok K4 asexual blood stage; test: EC50 asexual blood stage growth
Method: as §2

[5] = system: Plasmodium vivax liver stage (primary human hepatocyte culture)
Method: as §1

[6] = P. vivax isolate: Pv914, hepatocyte lot: BGW, assay mode: Prophylactic, 6-day
[7] = P. vivax isolate: Pv914, hepatocyte lot: BGW, assay mode: Radical Cure, 8-day (treatment from day 5 post-infection)
[8] = serum: 20% M. fascicularis serum
[9] = P. vivax isolate: Pv668, hepatocyte lot: BGW, assay mode: Radical Cure, 8-day (treatment from day 5 post-infection)
[10] = P. vivax isolate: Pv360, hepatocyte lot: UBV, assay mode: Radical Cure, 8-day (treatment from day 5 post-infection)

SMILES	EC50 asexual blood stage growth [3] [nM]	EC50 asexual blood stage growth ([4]; serum: 0.5% AlbuMAX) [nM]	EC50 asexual blood stage growth [4, 8] [nM]	also measured
CS(=O)(=O)c1ccc(-c2cnc(N)c(-c3ccc(C(F)(F)F)nc3)n2)cc1	178	4880	629	CC20 hepatic nuclei [1, 6]: > 10000 nM; CC20 hepatic nuclei [1, 7]: > 10000 nM; maximum inhibition [2, 6]: 101%; maximum inhibition [2, 7]: 96.4%; EC50 hypnozoite quantity [5, 6]: 7.29 nM; EC50 schizont net growth area [5, 6]: 4.76 nM; EC50 hypnozoite quantity [5, 7]: > 10000 nM; EC50 schizont net growth area [5, 7]: 23.9 nM
O=C(NCCN1CCCC1)c1cc(-c2ccc(CN3CCOCC3)cc2)nc2ccc(F)cc12	1	1.5	0.7	CC20 hepatic nuclei [1, 6]: > 10000 nM; CC20 hepatic nuclei [1, 7]: > 10000 nM; maximum inhibition [2, 6]: 101%; maximum inhibition [2, 7]: 92.3%; EC50 hypnozoite quantity [5, 6]: 10.4 nM; EC50 schizont net growth area [5, 6]: 2.57 nM; EC50 hypnozoite quantity [5, 7]: > 10000 nM; EC50 schizont net growth area [5, 7]: 2.35 nM
OC(c1cc(C(F)(F)F)nc2c(C(F)(F)F)cccc12)C1CCCCN1 (racemic) [(±)-Mefloquine]	90.1	219	66.4	CC20 hepatic nuclei [1, 6]: > 3330 nM; maximum inhibition [2, 6]: 86%; EC50 hypnozoite quantity [5, 6]: > 10000 nM; EC50 schizont net growth area [5, 6]: > 1110 nM
O[C@H](c1cc(C(F)(F)F)nc2c(C(F)(F)F)cccc12)[C@@H]1CCCCN1 [(+)-Mefloquine]	17.9	31.2	60	CC20 hepatic nuclei [1, 9]: 23300 nM; CC20 hepatic nuclei [1, 6]: 13200 nM; maximum inhibition [2, 9]: 93.9%; maximum inhibition [2, 6]: 98.7%; EC50 hypnozoite quantity [5, 9]: > 50000 nM; EC50 hypnozoite quantity [5, 6]: 14800 nM; EC50 schizont net growth area [5, 6]: 5730 nM
CCN(CC)CCCNc1ccnc2cc(Cl)ccc12 [AQ-13]	16	78.7	55.9	CC20 hepatic nuclei [1, 6]: > 10000 nM; maximum inhibition [2, 6]: 56.1%; EC50 hypnozoite quantity [5, 6]: > 10000 nM
Cc1nc(Nc2ncc(N3CCN(C)C(C)C3)c(Nc3cc(C)n(C)n3)n2)cc(C2CC2)c1F (stereo not drawn) [AZ412]	23.2	76.8	56.7	CC20 hepatic nuclei [1, 10]: > 10000 nM; CC20 hepatic nuclei [1, 6]: > 10000 nM; maximum inhibition [2, 10]: 104%; maximum inhibition [2, 6]: 99.7%; EC50 hypnozoite quantity [5, 10]: > 10000 nM; EC50 schizont net growth area [5, 10]: 381 nM; EC50 hypnozoite quantity [5, 6]: > 3330 nM; EC50 schizont net growth area [5, 6]: 686 nM
CCCCN(CCCC)CCC(O)c1cc2c(Cl)cc(Cl)cc2c2cc(C(F)(F)F)ccc12 (stereo not drawn) [Halofantrine]	3.7	0.5	0.5	
CCN(CCO)CCCC(C)Nc1ccnc2cc(Cl)ccc12 (stereo not drawn) [Hydroxychloroquine]	427	3370	209	
CC1(C)c2nc(-c3ccc(F)cc3)c(Nc3ccc(F)cc3)n2CCN1C(=O)CN [KAF-156]	24.4	3.6	36.6	
CCCCN(CCCC)CC(O)c1cc(Cl)cc2c1-c1ccc(Cl)cc1C2=Cc1ccc(Cl)cc1 (stereo not drawn) [Lumefantrine]	30.5	23.3	105	
CC(C)(C)c1cc(O)c(CN)c(C(C)(C)C)c1.Cl [MK-4815]	574	49.4	93.8	
CS(=O)(=O)c1ccc(-c2cnc(N)c(-c3ccc(C(F)(F)F)nc3)c2)cc1 [MMV048]	127	59.8	49	
CN(Cc1cnc2nc(N)nc(N)c2n1)c1ccc(C(=O)N[C@@H](CCC(=O)O)C(=O)O)cc1 [Methotrexate]	138	232	168	
CN(C)c1ccc2nc3ccc(=[N+](C)C)cc-3sc2c1 [Methylene blue]	17.8	5.4	6	
CC(=O)N[C@@H](C(=O)O)C(C)(C)S [N-acetyl-D-penicillamine]	> 10000	7560	> 10000	
CC(C)(C)NCc1cc(Nc2ccnc3cc(Cl)ccc23)c2c(c1O)CCCC2 [Naphthoquine]	8.7	23.2	68.3	
CONC(=N)c1ccc(-c2ccc(-c3ccc(C(=N)NOC)cc3)o2)cc1 [Pafuramidine]	> 10000	> 10000	> 10000	
N=C(N)c1ccc(OCCCCCOc2ccc(C(=N)N)cc2)cc1 [Pentamidine]	139	212	389	
CN(C)Cc1ccccc1CNc1ccnc2cc(Cl)ccc12 [Phenylequine]	7.4	36.6	40.7	
Clc1ccc2c(N3CCN(CCCN4CCN(c5ccnc6cc(Cl)ccc56)CC4)CC3)ccnc2c1 [Piperaquine]	299	68.2	35.3	
COc1cc(NC(C)CCCN)c2ncccc2c1 (stereo not drawn) [Primaquine]	5750	3100	9000	
CC(C)N=C(N)N=C(N)Nc1ccc(Cl)cc1 [Proguanil]	2740	> 10000	> 10000	
CCc1nc(N)nc(N)c1-c1ccc(Cl)cc1 [Pyrimethamine]	36.6	21.8	7.2	
C=CC1CN2CCC1CC2C(O)c1ccnc2ccc(OC)cc12 (stereo not drawn) [Quinidine]	73.9	30.8	18.5	
C=C[C@H]1C[N@@]2CC[C@H]1C[C@H]2[C@H](O)c1ccnc2ccc(OC)cc12 [Quinine]	184	127	174	
Cc1cc2nc3c(=O)[nH]c(=O)nc-3n(CC(O)C(O)C(O)CO)c2cc1C (stereo not drawn) [Riboflavin]	> 10000	> 10000	> 10000	
CCN(CC)CCCCCCNc1cc(OC)cc2c(C)ccnc12 [Sitamaquine]	730	773	1050	
Nc1ccc(S(=O)(=O)Nc2ncccn2)cc1 [Sulfadiazine]	> 10000	> 10000	8320	
COc1cc(C)c2c(Oc3cccc(C(F)(F)F)c3)c(OC)cc(NC(C)CCCN)c2n1 (stereo not drawn) [Tafenoquine]	5940	5290	> 10000	
COc1cc(Cc2cnc(N)nc2N)cc(OC)c1OC [Trimethoprim]	5280	794	496	
